One assay concerns the target FKBP12 (Homo sapiens, UniProt P62942). As to the kind of experiment: competitive fluorescence polarization assay, FKBP12. It counts as binding. To be noted: for Ki: competitive fluorescence polarization assay, >80 μM = highest measurable concentration before compound precipitation, ± = standard error from three independent measurements, read-out: FKBP12 K i. In general terms: Polarisation of emitted light reports the rotation of a fluorescent probe.

Assay [1] addresses T1, FKBP51FK1 (Homo sapiens, UniProt Q13451).
T1 sequence (Q13451 42-130 limits assumed): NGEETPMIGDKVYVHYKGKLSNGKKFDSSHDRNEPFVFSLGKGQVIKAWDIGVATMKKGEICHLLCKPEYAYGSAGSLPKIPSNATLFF
As to the kind of experiment: competitive fluorescence polarization assay, FKBP51FK1. It is filed as binding. The settings on record: ± = standard error from three independent measurements [b] or error from two independent measurements [d], read-out: FKBP51FK1 K i. As for the experimental part:
Table S1. Ki values were determined by a competitive fluoresc ence polarization assay.
4.1 Binding curves of 13a, c and d […]

For another assay, the target named is FKBP12.6 (Homo sapiens, UniProt P68106). As to the kind of experiment: competitive fluorescence polarization assay, FKBP12.6. To be noted: for Ki: competitive fluorescence polarization assay, >80 μM = highest measurable concentration before compound precipitation, ± = standard error from three independent measurements, read-out: FKBP12.6 K i. It is filed as binding.
Chain of FKBP12.6 (P68106 whole entry): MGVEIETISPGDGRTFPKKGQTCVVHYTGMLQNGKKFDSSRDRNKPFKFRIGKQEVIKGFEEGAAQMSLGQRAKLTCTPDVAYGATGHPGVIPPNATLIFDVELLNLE

Assay [2] has as its system IKKα phosphorylation in SIM-A9 cells. As to the kind of experiment: IKKα inhibition in SIM-A9 cells (Western blot). The settings on record: for concentration at which apparent maximal inhibition of IKKα phosphorylation was already reached: SIM-A9 cells, lowest tested concentration; for inhibition of IKKα phosphorylation (in words) / dose-dependence of inhibition of IKKα phosphorylation: murine microglia SIM-A9 cells, 16 h treatment, Western blot; for inhibition of IKKα phosphorylation (in words): three (macrocycles) or six (SAFit) independent cellular assays. It is filed as cell-based, murine. On the procedure:
We next explored if the macrocyclic ligands could interfere with the cellular functions of FKBP51. We therefore treated SIM‐A9 cells, which were recently discovered as a SAFit‐sensitive cellular model for stress‐mediated secretory autophagy. ^[24] […] (Figure 2 F and S6C). […]
5.2 IKKα inhibition in SIM-A9 cells
Cell culture and treatments
Murine microglia SIM-A9 cells were cultured at 37 °C, 5% CO2 in Dulbecco's Modified Eagle Medium (DMEM) high glucose with GlutaMAX (Thermo Fisher Scientific, 10566016), supplemented with 1 mM sodium pyruvate (Thermo Fisher Scientific, 11360-070), 10% fetal bovine serum (PAN Biotech, P30-8500), and 1% antibiotic-antimycotic (Thermo Fisher Scientific, 15240-062).
For the preparation of whole-cell lysates, confluent SIM-A9 cell cultures treated with the indicated compounds for 16 h in the above mentioned growth medium, were washed two times with ice-cold DPBS (Thermo Fisher Scientific, 14190-144) and lysed in an appropriate volume of RIPA buffer (Thermo Fisher Scientific, 89901), freshly supplemented with 1x cOmplete™ EDTA-free protease inhibitor cocktail (Roche, 4693132001) and 1x PhosSTOP™ phosphatase inhibitor cocktail (Roche, 4906837001) for 20 min on ice.
Subsequently, samples were centrifuged for 10 min at 4°C at 13000 rpm. The resulting supernatants were transferred to new 1.5 ml reaction tubes and prepared for separation with an SDS-PAGE system and analyzed by immunoblotting.
SDS-PAGE and immunoblotting
Separation of proteins was performed with the Criterion™ Vertical Electrophoresis Cell System (Bio-Rad, 1656001) on 4–20% Criterion™ TGX™ Precast Midi Protein Gels (Bio-Rad, 5671095). Immunoblotting was performed with the Trans-Blot Turbo Transfer System (Bio-Rad, 1704150) on 0.2 µm PVDF Trans-Blot Turbo Transfer Membranes (Bio-Rad, 1704157). For immunodetection, membranes were placed in TBS, supplemented with 0.05% Tween (Sigma-Aldrich, P9416) and 5% non-fat milk (Carl Roth, T145.1) for 1 h at RT and then incubated with the primary antibody diluted in TBS-T overnight at 4°C. Following primary antibodies were used:
Phospho-IKKα S176/phospho-IKKβ S177 (1:1000, Cell Signaling Technology, 2078), IKKα (1:1000, Cell Signaling Technology, 1682) and GAPDH (1:1000, Cell Signaling Techology, 5174).
Then, immunoblots were washed and probed with horseradish peroxidase- conjugated secondary antibody (1:10000, Cell Signaling Technology, 7074) for 1 h at RT. Immunoreactive protein bands were visualized using Clarity Western ECL Substrate (Bio-Rad, 1705061) or Clarity Max Western ECL Substrate (Bio-Rad, 1705062). Determination of the band intensities was performed with […]
(In general: In western blotting, separated proteins are transferred to a membrane and probed.)

Assay [3] addresses T1, FKBP51FK1. As to the kind of experiment: isothermal titration calorimetry (ITC). It counts as binding. As for the experimental part: 1. ITC of compounds 13a and 13d
Figure S1. A) Binding of compound 13a to FKBP51FK1 determined by isothermal titration calorimetry at 25 °C. A 20 µM solution FKBP51FK1 formulated in 20 mM
HEPES pH 8.0, 20 mM NaCl, 5% glycerol and 2% DMSO was placed in the sample cell of a PEAK-ITC instrument. The syringe was filled with a 200 µM solution of
13a formulated in the same buffer. After equilibration the compound was titrated into the sample cell by 12 injection s of 3 µl each. The obtained data was analyzed
Binding of compound 13d to FKBP51FK1 determined by isothermal titration calorimetry at 25 °C. A 13 µM solution FKBP51FK1 formulated in 20 mM HEPES pH
8.0, 20 mM NaCl, 5% glycerol and 2% DMSO was placed in the sample cell of a PEAK -ITC instrument. The syringe was filled with a 10 0 µM solution of 13d
formulated in the same buffer. After equilibration the compound was titrated into the sample cell by 12 injections of 3 µl each. The obtained data was analyzed using […]

Where [4] appears, read: fluorescence polarization assay.

The source of these data is paper PMC8252719, “Macrocyclic FKBP51 Ligands Define a Transient Binding Mode with Enhanced Selectivity” (Angewandte Chemie (International Ed. in English), 2021).

The structures appear in SMILES notation. Read-outs that look alike come from different tables or passages of the source.

Chain of FKBP12 (P62942 whole entry): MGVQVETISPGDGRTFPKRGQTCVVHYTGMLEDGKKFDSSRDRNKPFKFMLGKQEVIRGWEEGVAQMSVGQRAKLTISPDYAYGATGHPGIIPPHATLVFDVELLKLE

For the molecule `COc1ccc(CC[C@H]2OC(=O)[C@@H]3CCCCN3C(=O)[C@@H](C3CCCCC3)NC(=O)C3(CCCC3)NC(=O)COc3cccc2c3)cc1OC` [13 f], the Ki at FKBP12 was more than 80 µM; on FKBP51FK1 [1], 1.3 µM; on FKBP12.6, more than 80 µM.
As to `COc1ccc(CC[C@H]2OC(=O)[C@@H]3CCCCN3C(=O)[C@@H](C3CCCCC3)NC(=O)C(C)(C)NC(=O)COc3cccc2c3)cc1OC` [13 c], the “concentration at which apparent maximal inhibition of IKKα phosphorylation was already reached” value in assay [2] is not above 1 µM. Further, in assay [2], the “inhibition of IKKα phosphorylation (in words)” value (shortened to “inhibition … (in words)”) is “inhibited”. Also, the figures for the Ki on FKBP12, on FKBP51FK1 [1] (SEM) and on FKBP12.6 were more than 80 µM, 0.29 ± 0.05 µM and more than 80 µM, respectively.
For the molecule `COc1ccc(CCC2OC(=O)C3CCCCN3C(=O)C(C3CCCCC3)CC(O)C(O)COCCOc3cccc2c3)cc1OC` (mixture of isomers) [9 g], at FKBP12 (setting [4]), the “binding to FKBP12 (in words)” value is listed as “did not bind”. Also, the Ki at FKBP51FK1 [1] came out at 1.2 µM. The “binding to FKBP12.6 (in words)” value at FKBP12.6 (setting [4]) was “did not bind”.
Regarding `COc1ccc(CC[C@H]2OC(=O)[C@@H]3CCCCN3C(=O)[C@@H](C3CCCCC3)NC(=O)[C@H]3CCCN3C(=O)COc3cccc2c3)cc1OC` [13 i, (9R,12R,19S,22R)-12-cyclohexyl-22-[2-(3,4-dimethoxyphenyl)ethyl]-2,21-dioxa-5,11,14-triazatetracyclo[21.3.1.0⁵,⁹.0¹⁴,¹⁹]heptacosa-1(26),23(27),24-triene-4,10,13,20-tetrone], in assay [2], the “dose-dependence of inhibition of IKKα phosphorylation” value was “clear dose‐dependence” and the “inhibition … (in words)” value is “inhibited”. Further, on FKBP12, the Ki was more than 80 µM. For the same molecule, the Ki at FKBP12.6 is more than 80 µM.
Consider `COc1ccc(CC[C@H]2OC(=O)[C@@H]3CCCCN3C(=O)[C@@H](C3CCCCC3)NC(=O)CN(C)C(=O)COc3cccc2c3)cc1OC` [13 g], for which the Ki at FKBP12 was more than 80 µM; at FKBP51FK1 [1], 3.1 µM; on FKBP12.6 it was more than 80 µM.
Regarding `COc1ccc(CC[C@H]2OC(=O)[C@@H]3CCCCN3C(=O)[C@@H](C3CCCCC3)NC(=O)CNC(=O)COc3cccc2c3)cc1OC` [13 a], the Kd at FKBP51FK1 [3] (25 °C, 20 mM HEPES pH 8.0, 20 mM NaCl, 5% glycerol, 2% DMSO, one-site binding model, mean ± SD from 3 independent experiments, SD, read-out: Kd-value for FKBP51FK1 by ITC) amounted to 3.6 ± 0.9 µM; at FKBP51FK1 [3] (isothermal calorimetry, enthalpy-driven, read-out: K d for FKBP51 by ITC), 3.6 µM. Besides, the Ki at FKBP12 is more than 80 µM; on FKBP51FK1 [1] (SEM), 2.3 ± 0.05 µM; at FKBP12.6, more than 80 µM.
Turning to `COc1ccc(CC[C@H]2OC(=O)[C@@H]3CCCCN3C(=O)[C@@H](C3CCCCC3)NC(=O)C3(CCC3)NC(=O)COc3cccc2c3)cc1OC` [13 e], the “dose-dependence of inhibition of IKKα phosphorylation” value in assay [2] is “clear dose‐dependence”. Moreover, in assay [2], the “inhibition … (in words)” value was “inhibited”. The Ki is more than 80 µM at FKBP12, 0.4 µM on FKBP51FK1 [1] and more than 80 µM at FKBP12.6.
Take `COc1ccc(CC[C@@H](OC(=O)[C@@H]2CCCCN2C(=O)[C@H](c2cc(OC)c(OC)c(OC)c2)C2CCCCC2)c2cccc(OCC(=O)O)c2)cc1OC` [SAFit1, reference compound]: the “dose-dependence of inhibition of IKKα phosphorylation” value in assay [2] was “clear dose‐dependence”. Moreover, the “inhibition … (in words)” value in assay [2] is recorded as “inhibited”. The Ki came out at 0.163 ± 0.009 µM on FKBP12 (SEM), 0.004 ± 0.001 µM at FKBP51FK1 [1] (SEM) and 0.019 ± 0.002 µM on FKBP12.6 (SEM).
As for `COc1ccc(CC[C@@H](OC(=O)[C@@H]2CCCCN2C(=O)[C@H](c2cc(OC)c(OC)c(OC)c2)C2CCCCC2)c2cccc(OCCN3CCOCC3)c2)cc1OC` [SAFit2, reference compound], in assay [2], the “dose-dependence of inhibition of IKKα phosphorylation” value is “clear dose‐dependence” and the “inhibition … (in words)” value is “inhibited”.
As for `COc1ccc(CC[C@H]2OC(=O)[C@@H]3CCCCN3C(=O)[C@@H](C3CCCCC3)NC(=O)[C@H](C)NC(=O)COc3cccc2c3)cc1OC` [13 j, (2R,5S,12R,15S)-12-cyclohexyl-2-[2-(3,4-dimethoxyphenyl)ethyl]-15-methyl-3,19-dioxa-10,13,16-triazatricyclo[18.3.1.0⁵,¹⁰]tetracosa-1(24),20,22-triene-4,11,14,17-tetrone], the Ki on FKBP12 and at FKBP12.6 was more than 80 µM throughout.
As to `COc1ccc(CC[C@H]2OC(=O)[C@@H]3CCCCN3C(=O)[C@@H](C3CCCCC3)NC(=O)C(C)(C)N(C)C(=O)COc3cccc2c3)cc1OC` [13 h], in assay [2], the “concentration at which apparent maximal inhibition of IKKα phosphorylation was already reached” value is not above 1 µM. Also, the “inhibition … (in words)” value in assay [2] is “inhibited”. Moreover, the Ki on FKBP12 was more than 80 µM; at FKBP51FK1 [1], 0.37 µM; on FKBP12.6, more than 80 µM.
On to `COc1ccc(CC[C@H]2OC(=O)[C@@H]3CCCCN3C(=O)[C@@H](C3CCCCC3)NC(=O)[C@@H]3CCCN3C(=O)COc3cccc2c3)cc1OC` [13 k, (9S,12R,19S,22R)-12-cyclohexyl-22-[2-(3,4-dimethoxyphenyl)ethyl]-2,21-dioxa-5,11,14-triazatetracyclo[21.3.1.0⁵,⁹.0¹⁴,¹⁹]heptacosa-1(26),23(27),24-triene-4,10,13,20-tetrone], for which the Ki on FKBP12 and at FKBP12.6 was more than 80 µM each time.
As for `COc1ccc(CC[C@H]2OC(=O)[C@@H]3CCCCN3C(=O)[C@@H](C3CCCCC3)NC(=O)CCNC(=O)COc3cccc2c3)cc1OC` [13 l], the Ki on FKBP12 is more than 80 µM; at FKBP51FK1 [1], 7.4 µM; on FKBP12.6, more than 80 µM.
`COc1ccc(CC[C@H]2OC(=O)[C@@H]3CCCCN3C(=O)[C@@H](C3CCCCC3)NC(=O)[C@@H](C)NC(=O)COc3cccc2c3)cc1OC` [13 b, (2R,5S,12R,15R)-12-cyclohexyl-2-[2-(3,4-dimethoxyphenyl)ethyl]-15-methyl-3,19-dioxa-10,13,16-triazatricyclo[18.3.1.0⁵,¹⁰]tetracosa-1(24),20,22-triene-4,11,14,17-tetrone]: the Ki at FKBP12 and at FKBP12.6 was more than 80 µM throughout.
